{
  "source": "the supplement of paper PMC10307832",
  "assay_in_all_cases": "relative viability (nuclei count vs DMSO), 5 days (fraction); higher = more cells survive",
  "key": {"H3255": {"test_system": "H3255", "procedure,_shortened": "(§1)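 Relative viability divides the nuclei count in treated wells by that in vehicle wells. Lung cancer cell lines were seeded in 1536-well plates, dosed by pin tool the next day, and fixed and stained after 5 days in one step with final 0.05% Triton X-100, 1% formaldehyde and 1 ug/ml Hoechst. Dosing was a single drug or a fixed anchor-drug dose plus five library-drug doses (not always all listed) in √10 steps, and values are medians of duplicate plates imaged at 4×.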"}, "NCI-H2087": {"test_system": "NCI-H2087", "procedure,_shortened": "as §1"}, "NCI-H1395": {"test_system": "NCI-H1395", "procedure,_shortened": "as §1"}, "LC-2-ad": {"test_system": "LC-2-ad", "procedure,_shortened": "as §1"}, "NCI-H1944": {"test_system": "NCI-H1944", "procedure,_shortened": "as §1"}, "COR-L 105": {"test_system": "COR-L 105", "procedure,_shortened": "as §1"}, "NCI-H661": {"test_system": "NCI-H661", "procedure,_shortened": "as §1"}, "NCI-H1651": {"test_system": "NCI-H1651", "procedure,_shortened": "as §1"}, "PC-3 [JPC-3]": {"test_system": "PC-3 [JPC-3]", "procedure,_shortened": "as §1"}, "NCI-H1915": {"test_system": "NCI-H1915", "procedure,_shortened": "as §1"}, "NCI-H1437": {"test_system": "NCI-H1437", "procedure,_shortened": "as §1"}, "NCI-H2347": {"test_system": "NCI-H2347", "procedure,_shortened": "as §1"}},
  "data": [
    {"smiles": "Cc1cnc(-c2cnc(NCCNc3ccc(C#N)cn3)nc2-c2ccc(Cl)cc2Cl)[nH]1", "note": "+ COc1cccc2cc(-c3nc([C@H]4CC[C@H](C(=O)O)CC4)n4ncnc(N)c34)[nH]c12 [OSI-027] (partner 0.5 µM)", "values": [
      {"measurement": "relative viability", "setting": "H3255; first compound 0.08 µM", "result": 0.745},
      {"measurement": "relative viability", "setting": "H3255; first compound 0.253 µM", "result": 0.535},
      {"measurement": "relative viability", "setting": "H3255; first compound 0.8 µM", "result": 0.616},
      {"measurement": "relative viability", "setting": "H3255; first compound 2.53 µM", "result": 0.592},
      {"measurement": "relative viability", "setting": "NCI-H2087; first compound 0.08 µM", "result": 0.48},
      {"measurement": "relative viability", "setting": "NCI-H2087; first compound 0.253 µM", "result": 0.467},
      {"measurement": "relative viability", "setting": "NCI-H2087; first compound 0.8 µM", "result": 0.507},
      {"measurement": "relative viability", "setting": "NCI-H2087; first compound 2.53 µM", "result": 0.44},
      {"measurement": "relative viability", "setting": "NCI-H1395; first compound 0.08 µM", "result": 0.828},
      {"measurement": "relative viability", "setting": "NCI-H1395; first compound 0.253 µM", "result": 0.525},
      {"measurement": "relative viability", "setting": "NCI-H1395; first compound 0.8 µM", "result": 0.602},
      {"measurement": "relative viability", "setting": "NCI-H1395; first compound 2.53 µM", "result": 0.67},
      {"measurement": "relative viability", "setting": "LC-2-ad; first compound 0.08 µM", "result": 0.886},
      {"measurement": "relative viability", "setting": "LC-2-ad; first compound 0.253 µM", "result": 0.713},
      {"measurement": "relative viability", "setting": "LC-2-ad; first compound 2.53 µM", "result": 0.962},
      {"measurement": "relative viability", "setting": "NCI-H1944; first compound 0.08 µM", "result": 0.422},
      {"measurement": "relative viability", "setting": "NCI-H1944; first compound 0.8 µM", "result": 0.489},
      {"measurement": "relative viability", "setting": "NCI-H1944; first compound 2.53 µM", "result": 0.685},
      {"measurement": "relative viability", "setting": "COR-L 105; first compound 0.08 µM", "result": 0.769},
      {"measurement": "relative viability", "setting": "COR-L 105; first compound 0.253 µM", "result": 0.661},
      {"measurement": "relative viability", "setting": "COR-L 105; first compound 0.8 µM", "result": 0.694},
      {"measurement": "relative viability", "setting": "COR-L 105; first compound 2.53 µM", "result": 0.379},
      {"measurement": "relative viability", "setting": "NCI-H661; first compound 0.08 µM", "result": 0.77},
      {"measurement": "relative viability", "setting": "NCI-H661; first compound 0.253 µM", "result": 0.667},
      {"measurement": "relative viability", "setting": "NCI-H661; first compound 0.8 µM", "result": 0.743},
      {"measurement": "relative viability", "setting": "NCI-H661; first compound 2.53 µM", "result": 0.802},
      {"measurement": "relative viability", "setting": "NCI-H1651; first compound 0.08 µM", "result": 0.797},
      {"measurement": "relative viability", "setting": "NCI-H1651; first compound 0.253 µM", "result": 0.589},
      {"measurement": "relative viability", "setting": "NCI-H1651; first compound 0.8 µM", "result": 0.71},
      {"measurement": "relative viability", "setting": "NCI-H1651; first compound 2.53 µM", "result": 0.801},
      {"measurement": "relative viability", "setting": "PC-3 [JPC-3]; first compound 0.08 µM", "result": 0.831},
      {"measurement": "relative viability", "setting": "PC-3 [JPC-3]; first compound 0.253 µM", "result": 0.757},
      {"measurement": "relative viability", "setting": "PC-3 [JPC-3]; first compound 0.8 µM", "result": 0.692},
      {"measurement": "relative viability", "setting": "PC-3 [JPC-3]; first compound 2.53 µM", "result": 0.742},
      {"measurement": "relative viability", "setting": "NCI-H1915; first compound 0.08 µM", "result": 0.715},
      {"measurement": "relative viability", "setting": "NCI-H1915; first compound 0.253 µM", "result": 0.586},
      {"measurement": "relative viability", "setting": "NCI-H1915; first compound 0.8 µM", "result": 0.658},
      {"measurement": "relative viability", "setting": "NCI-H1915; first compound 2.53 µM", "result": 0.812},
      {"measurement": "relative viability", "setting": "NCI-H1437; first compound 0.08 µM", "result": 0.896},
      {"measurement": "relative viability", "setting": "NCI-H1437; first compound 0.253 µM", "result": 0.88},
      {"measurement": "relative viability", "setting": "NCI-H1437; first compound 0.8 µM", "result": 0.916},
      {"measurement": "relative viability", "setting": "NCI-H1437; first compound 2.53 µM", "result": 0.976},
      {"measurement": "relative viability", "setting": "NCI-H2347; first compound 0.08 µM", "result": 0.397},
      {"measurement": "relative viability", "setting": "NCI-H2347; first compound 0.253 µM", "result": 0.415},
      {"measurement": "relative viability", "setting": "NCI-H2347; first compound 0.8 µM", "result": 0.324}
    ]}
  ]
}
